# Assay results published in patent publication US20220380314A1, “SUBSTITUTED, SATURATED AND UNSATURATED N-HETEROCYCLIC CARBOXAMIDES AND RELATED COMPOUNDS FOR THEIR USE IN THE TREATMENT OF MEDICAL DISORDERS” (Bial - R&D Investments, S.A., priority 2019, published 2022).
# Counter-ions that a name gives are not always drawn.
# How the values were obtained:
# [1] = Compound solubility in water; format: physicochemical
# [2] = molecular target: T1, acid ceramidase (hACR) (Homo sapiens, UniProt Q13510); experiment: Acid ceramidase inhibition, biochemical fluorescent assay with cell lysates overexpressing acid ceramidase, substrate Rbm14-12; conditions: cell lysates overexpressing acid ceramidase; 1 hr preincubation at RT; pH 4.5; substrate Rbm14-12 6.3 μM; read-out: hACR IC50
# T1 construct: expressed in transfected cells; cell lysate used
# T1 sequence (Q13510 143-395 limits assumed): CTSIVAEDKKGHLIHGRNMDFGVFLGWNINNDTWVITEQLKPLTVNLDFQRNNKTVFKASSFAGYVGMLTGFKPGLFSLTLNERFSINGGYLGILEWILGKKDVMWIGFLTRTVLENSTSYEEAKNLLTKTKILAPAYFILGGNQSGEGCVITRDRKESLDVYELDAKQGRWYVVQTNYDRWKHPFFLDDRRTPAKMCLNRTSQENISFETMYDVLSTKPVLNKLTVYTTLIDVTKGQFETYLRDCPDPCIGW
# T1 sequence (Q13510 22-142 limits assumed): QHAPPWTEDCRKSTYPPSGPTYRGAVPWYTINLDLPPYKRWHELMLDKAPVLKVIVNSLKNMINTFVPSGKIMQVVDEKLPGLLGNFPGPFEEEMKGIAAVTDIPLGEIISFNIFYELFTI
# Description: The ability of exemplary compounds to inhibit acid ceramidase was measured.
# Cell lysates overexpressing acid ceramidase were used as the enzyme source for compound potency determination in a biochemical fluorescent assay. Briefly, compounds were preincubated with 10 µg protein of cell lysates in a dose-response manner for 1 hr at RT in the assay buffer containing 25 mM NaAC and 100 mM NaCl, pH 4.5. The reaction was initiated by the addition of substrate Rbm14-12 at a final concentration of 6.3 μM. The reaction was run at RT for 1 hr before it was stopped by the addition of the stopping buffer containing 20% methanol (v/v), 1 mg/ml NaIO4, 0.1 M glycine, pH 10.6. The samples were incubated with the stopping buffer at RT for 1 hr to allow the fluorescent product to be formed. Finally the plate was read with SpectraMax i3 plate reader (Molecular Devices) at ex360 nm and em446 nm. Data were collected and used to determine the IC50 values of compounds by curve fitting to the four-parameter inhibition equation.
# The symbol “A” indicates inhibition of less than 0.2 μM; the symbol “B” indicates inhibition in the range of 0.2 μM up to 1 μM; and the symbol “C” indicates inhibition of greater than 1 μM.
solubility [1],IC50 [2],SMILES
33.2 µM,200 to 1000 nM,"CN1CCC(c2ccc3c(c2)N(C(=O)NCCc2ccccc2)C(C)(C)CC3)CC1 [Example 1, 2,2-Dimethyl-7-(1-methylpiperidin-4-yl)-N-phenethyl-3,4-dihydroquinoline-1(2H)-carboxamide]"
36.5 µM,< 200 nM,"CN1CCC(c2cccc3c2CCC(C)(C)N3C(=O)NCCc2ccccc2)CC1 [Example 2, 2,2-Dimethyl-5-(1-methylpiperidin-4-yl)-N-phenethyl-3,4-dihydroquinoline-1(2H)-carboxamide]"
38.7 µM,> 1000 nM,"CN1CCC(c2ccc3c(c2)N(C(=O)NCCc2ccccc2)CCC3)CC1 [Example 3, 7-(1-Methylpiperidin-4-yl)-N-phenethyl-3,4-dihydroquinoline-1(2H)-carboxamide]"
3.2 µM,200 to 1000 nM,"CC1(C)CCc2ccccc2N1C(=O)NCCc1ccccc1 [Example 6, 2,2-Dimethyl-N-phenethyl-3,4-dihydroquinoline-1(2H)-carboxamide]"
6.7 µM,200 to 1000 nM,"CN1CC(C)(C)N(C(=O)NCCc2ccccc2)c2ccccc21 [Example 7, 2,2,4-Trimethyl-N-phenethyl-3,4-dihydroquinoxaline-1(2H)-carboxamide]"
27.4 µM,> 1000 nM,"CC1(C)CCc2cccnc2N1C(=O)NCCc1ccccc1 [Example 8, 2,2-Dimethyl-N-phenethyl-3,4-dihydro-1,8-naphthyridine-1(2H)-carboxamide]"
25.2 µM,> 1000 nM,"CC1(C)CCc2ncccc2N1C(=O)NCCc1ccccc1 [Example 9, 2,2-Dimethyl-N-phenethyl-3,4-dihydro-1,5-naphthyridine-1(2H)-carboxamide]"
6.7 µM,> 1000 nM,"CC1(C)CCc2ccc(N3CCOCC3)cc2N1C(=O)NCCc1ccccc1 [Example 10, 2,2-Dimethyl-7-morpholino-N-phenethyl-3,4-dihydroquinoline-1(2H)-carboxamide]"
8.1 µM,200 to 1000 nM,"CC1(C)CCc2c(N3CCOCC3)cccc2N1C(=O)NCCc1ccccc1 [Example 11, 2,2-Dimethyl-5-morpholino-N-phenethyl-3,4-dihydroquinoline-1(2H)-carboxamide]"
26.6 µM,> 1000 nM,"Cn1ccnc1-c1ccc2c(c1)N(C(=O)NCCc1ccccc1)C(C)(C)CC2 [Example 12, 2,2-Dimethyl-7-(1-methyl-1H-imidazol-2-yl)-N-phenethyl-3,4-dihydroquinoline-1(2H)-carboxamide]"
33.6 µM,> 1000 nM,"Cn1ccnc1-c1cccc2c1CCC(C)(C)N2C(=O)NCCc1ccccc1 [Example 13, 2,2-Dimethyl-5-(1-methyl-1H-imidazol-2-yl)-N-phenethyl-3,4-dihydroquinoline-1(2H)-carboxamide]"
24 µM,> 1000 nM,"CC1(C)c2ncccc2CCN1C(=O)NCCc1ccccc1 [Example 14, 8,8-Dimethyl-N-phenethyl-5,6-dihydro-1,7-naphthyridine-7(8H)-carboxamide]"
0.9 µM,> 1000 nM,"CC1(C)c2ccccc2CCN1C(=O)NCCc1ccccc1 [Example 15, 1,1-Dimethyl-N-phenethyl-3,4-dihydroisoquinoline-2(1H)-carboxamide]"
3.1 µM,> 1000 nM,"CC1(C)COc2ccccc2N1C(=O)NCCc1ccccc1 [Example 16, 3,3-Dimethyl-N-phenethyl-2H-benzo[b][1,4]oxazine-4(3H)-carboxamide]"
1.5 µM,200 to 1000 nM,"CC1(C)CCc2ccccc2N1C(=O)NCCOc1ccccc1 [Example 18, 2,2-Dimethyl-N-(2-phenoxyethyl)-3,4-dihydroquinoline-1(2)-carboxamide]"
6.5 µM,200 to 1000 nM,"COC1CC(C)(C)N(C(=O)NCCc2ccccc2)c2ccccc21 (centres unmarked) [Example 19, 4-Methoxy-2,2-dimethyl-N-phenethyl-3,4-dihydroquinoline-1(2)-carboxamide]"
32.2 µM,200 to 1000 nM,"CN1CCC(c2cccc3c2CN(C(=O)NCCc2ccccc2)C(C)(C)C3)CC1 [Example 20, 3,3-Dimethyl-8-(1-methylpiperidin-4-yl)-N-phenethyl-3,4-dihydroisoquinoline-2(1H)-carboxamide]"

solubility [1],IC50 [2],SMILES
34.2 µM,> 1000 nM,"CN1CCC(c2ccc3c(c2)CC(C)(C)N(C(=O)NCCc2ccccc2)C3)CC1 [Example 21, 3,3-Dimethyl-6-(1-methylpiperidin-4-yl)-N-phenethyl-3,4-dihydroisoquinoline-2(1H)-carboxamide]"
5.7 µM,200 to 1000 nM,"CC1(C)Cc2ccccc2CN1C(=O)NCCc1ccccc1 [Example 22, 3,3-Dimethyl-N-phenethyl-3,4-dihydroisoquinoline-2(1H)-carboxamide]"
33.6 µM,200 to 1000 nM,"CN1CCC(c2ccc3c(c2)CCC(C)(C)N3C(=O)NCCc2ccccc2)CC1 [Example 23, 2,2-Dimethyl-6-(1-methylpiperidin-4-yl)-N-phenethyl-3,4-dihydroquinoline-1(2H)-carboxamide]"
40.6 µM,200 to 1000 nM,"CCCCNC(=O)N1c2cccc(C3CCN(C)CC3)c2CCC1(C)C [Example 24, N-Butyl-2,2-dimethyl-5-(1-methylpiperidin-4-yl)-3,4-dihydroquinoline-1(2H)-carboxamide]"
23.2 µM,200 to 1000 nM,"CC1(C)CCCCN1C(=O)NCCc1ccccc1 [Example 25, 2,2-Dimethyl-N-phenethylpiperidine-1-carboxamide]"
43.7 µM,> 1000 nM,"CN1CCN(C2CCN(C(=O)NCCc3ccccc3)C(C)(C)C2)CC1 (centres unmarked) [Example 26, 2,2-Dimethyl-4-(4-methylpiperazin-1-yl)-N-phenethylpiperidine-1-carboxamide]"
16.8 µM,200 to 1000 nM,"CCCCNC(=O)N1c2ccccc2CCC1(C)C [Example 27, N-Butyl-2,2-dimethyl-3,4-dihydroquinoline-1(2H)-carboxamide]"
3.1 µM,> 1000 nM,"CC1(C)CC(=O)c2ccccc2N1C(=O)NCCc1ccccc1 [Example 28, 2,2-Dimethyl-4-oxo-N-phenethyl-3,4-dihydroquinoline-1(2H)-carboxamide]"
31.7 µM,> 1000 nM,"CN1CCN(c2cccc3c2CCC(C)(C)N3C(=O)NCCc2ccccc2)CC1 [Example 29, 2,2-Dimethyl-5-(4-methylpiperazin-1-yl)-N-phenethyl-3,4-dihydroquinoline-1(2H)-carboxamide]"
28.7 µM,–,"COCCNC(=O)N1c2ccccc2CCC1(C)C [Example 32, N-(2-Methoxyethyl)-2,2-dimethyl-3,4-dihydroquinoline-1(2H)-carboxamide]"
33.4 µM,–,"COC1CCN(C(=O)NCCc2ccccc2)C(C)(C)C1 (centres unmarked) [Example 36, 4-Methoxy-2,2-dimethyl-N-phenethylpiperidine-1-carboxamide]"
–,< 200 nM,"CCCCCNC(=O)N1C(c2ccc(F)c(OC)c2)COCC1(C)C (centres unmarked) [Example 163, 5-(4-Fluoro-3-methoxyphenyl)-3,3-dimethyl-N-pentylmorpholine-4-carboxamide]"
–,> 1000 nM,"CC1(C)CN(C(=O)OCc2ccccc2)CC(c2ccccc2)N1C(=O)NCCCCc1ccccc1 (centres unmarked) [Example 164, Benzyl 3,3-dimethyl-5-phenyl-4-(4-phenylbutylcarbamoyl)piperazine-1-carboxylate]"
–,< 200 nM,"CN1CC(C)(C)N(C(=O)NCCCCc2ccccc2)CC1c1ccccc1 (centres unmarked) [Example 166, 2,2,4-Trimethyl-5-phenyl-N-(4-phenylbutyl)piperazine-1-carboxamide]"
–,< 200 nM,"CCCCCNC(=O)N1C(c2ccc(F)cc2)CN(C)CC1(C)C (centres unmarked) [Example 167, 6-(4-Fluorophenyl)-2,2,4-trimethyl-N-pentylpiperazine-1-carboxamide hydrochloride]"
–,< 200 nM,"CN1CC(c2ccc(F)cc2)N(C(=O)NCCOCC2CC2)C(C)(C)C1 (centres unmarked) [Example 168, N-[2-(Cyclopropylmethoxy)ethyl]-6-(4-fluorophenyl)-2,2,4-trimethylpiperazine-1-carboxamide hydrochloride]"
–,< 200 nM,"CC1(C)CN(C2CC2)CC(c2ccccc2)N1C(=O)NCCCCc1ccccc1 (centres unmarked) [Example 169, 4-Cyclopropyl-2,2-dimethyl-6-phenyl-N-(4-phenylbutyl)piperazine-1-carboxamide]"

SMILES,solubility [1],IC50 [2]
"CC1(C)CC2(CCCCO2)CCN1C(=O)NCCc1ccccc1 (centres unmarked) [Example 17, 8,8-Dimethyl-N-phenethyl-1-oxa-9-azaspiro[5.5]undecane-9-carboxamide]",28.5 µM,200 to 1000 nM
